Assay [1] concerns B16-F10. The experiment in a line: Effect on doxorubicin accumulation in mouse B16/F10 cells by fluorimetry. It is filed as functional, cell-based.
The target in assay [2] is ATP-dependent translocase ABCB1 (Homo sapiens, UniProt P08183). In words: Inhibition of human MDR1 expressed in mouse B16/F10 cells assessed as increase in doxorubicin accumulation by fluorimetry. It is filed as cell-based. As to conditions: read-out: ED50 (the source's name).

The source made the active and inactive calls. The rule behind the calls is not given here.

ATP-dependent translocase ABCB1, sequence (P08183 whole entry): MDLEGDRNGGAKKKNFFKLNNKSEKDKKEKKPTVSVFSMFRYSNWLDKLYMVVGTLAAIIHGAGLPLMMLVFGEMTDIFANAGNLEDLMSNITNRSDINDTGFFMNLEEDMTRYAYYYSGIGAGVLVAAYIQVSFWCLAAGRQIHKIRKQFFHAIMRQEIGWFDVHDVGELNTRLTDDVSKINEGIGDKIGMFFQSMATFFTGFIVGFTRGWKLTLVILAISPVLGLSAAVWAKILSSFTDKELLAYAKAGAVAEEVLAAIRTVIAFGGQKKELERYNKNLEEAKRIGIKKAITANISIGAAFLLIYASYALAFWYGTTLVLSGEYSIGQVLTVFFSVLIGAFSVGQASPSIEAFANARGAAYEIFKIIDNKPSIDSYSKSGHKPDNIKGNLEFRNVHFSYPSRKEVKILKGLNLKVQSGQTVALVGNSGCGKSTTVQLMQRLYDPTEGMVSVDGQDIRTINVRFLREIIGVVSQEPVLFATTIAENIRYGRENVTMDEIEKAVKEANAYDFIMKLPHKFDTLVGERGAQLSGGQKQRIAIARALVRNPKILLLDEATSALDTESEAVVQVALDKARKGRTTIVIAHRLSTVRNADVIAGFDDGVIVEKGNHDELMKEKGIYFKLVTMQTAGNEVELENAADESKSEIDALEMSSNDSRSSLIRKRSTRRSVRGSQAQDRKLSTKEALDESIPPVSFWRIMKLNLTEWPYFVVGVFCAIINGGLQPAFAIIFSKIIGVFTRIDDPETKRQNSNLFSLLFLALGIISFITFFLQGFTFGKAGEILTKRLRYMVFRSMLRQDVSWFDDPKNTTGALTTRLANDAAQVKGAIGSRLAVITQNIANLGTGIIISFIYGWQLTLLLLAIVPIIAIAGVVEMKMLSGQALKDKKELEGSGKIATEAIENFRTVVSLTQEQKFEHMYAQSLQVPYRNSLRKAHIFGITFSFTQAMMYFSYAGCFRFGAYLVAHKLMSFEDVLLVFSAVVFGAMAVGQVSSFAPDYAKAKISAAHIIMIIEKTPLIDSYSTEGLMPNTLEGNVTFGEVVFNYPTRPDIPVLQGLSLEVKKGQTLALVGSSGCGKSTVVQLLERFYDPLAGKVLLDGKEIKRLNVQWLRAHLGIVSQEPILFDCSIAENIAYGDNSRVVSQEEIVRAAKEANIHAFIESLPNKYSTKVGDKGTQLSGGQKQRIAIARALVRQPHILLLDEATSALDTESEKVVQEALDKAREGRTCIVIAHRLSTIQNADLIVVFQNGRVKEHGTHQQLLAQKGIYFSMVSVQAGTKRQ

On to `CC1(C)C(=O)C(O)=C[C@]2(C)[C@H]3CC[C@@](C)(C(=O)CO)C=C3CC[C@@H]12` [LONCHOPHYLLOID A], for which the result in assay [1] was inactive. For the same compound, the EC50 in assay [2] is 193 µM.

Take `CC1(C)[C@@H](O)CC[C@]2(C)[C@H]3CC[C@@](C)(C(=O)CO)C=C3CC[C@@H]12` [LONCHOPHYLLOID B]: in assay [1], the outcome was inactive. Besides, the EC50 in assay [2] came to 195 µM.

Values taken from ChEMBL document CHEMBL1159194, “Two pimarane diterpenoids from Ephemerantha lonchophylla and their evaluation as modulators of the multidrug resistance phenotype” (J Nat Prod, 1998).
